Source: patent publication US20140039803A1, “Method for Rapid Identification of Drug Targets and Drug Mechanisms of Action in Human Cells” (THE ROCKEFELLER UNIVERSITY, priority 2011, published 2014)
Several values for one entry are separate records, joined by “and”; a condition that tells them apart may be missing. Identical values can stand only once. Like-named read-outs stand apart in the source and are kept apart here.

Key:
HCT-116 cells (parental) = assay: Cell proliferation assay (WST1), LD50; type: cell-based, human
PLK3 = PLK3 (Homo sapiens, UniProt Q9H4B4); conditions: cited from earlier work
[1] = test system: BI-2536-resistant clones of HCT-116 cells; assay: Spindle phenotype with BI-2536 treatment; type: cell-based, human
PLK2 = PLK2 (Homo sapiens, UniProt Q9NYY3); conditions: cited from earlier work
[2] = test system: BI-2536-resistant clones of HCT-116 cells; assay: Cell proliferation assay (WST1), LD50; type: cell-based, human
HCT-116 cells = assay: Spindle phenotype with BI-2536 treatment; type: cell-based, human
related motor proteins = conditions: in vitro; cited from earlier work
[3] = test system: hTERT-RPE1 cells stably expressing GFP-PSMB5 wild type or mutants; assay: Proliferation assay, bortezomib treatment; type: cell-based, human; conditions: stable expression of GFP-tagged PSMB5 mutants
[4] = test system: bortezomib-resistant clones of HCT-116 cells; conditions: for LD50: Table 4, mean ± s.e.m., n = 3

Chain of PLK2 (Q9NYY3 whole entry, species assumed): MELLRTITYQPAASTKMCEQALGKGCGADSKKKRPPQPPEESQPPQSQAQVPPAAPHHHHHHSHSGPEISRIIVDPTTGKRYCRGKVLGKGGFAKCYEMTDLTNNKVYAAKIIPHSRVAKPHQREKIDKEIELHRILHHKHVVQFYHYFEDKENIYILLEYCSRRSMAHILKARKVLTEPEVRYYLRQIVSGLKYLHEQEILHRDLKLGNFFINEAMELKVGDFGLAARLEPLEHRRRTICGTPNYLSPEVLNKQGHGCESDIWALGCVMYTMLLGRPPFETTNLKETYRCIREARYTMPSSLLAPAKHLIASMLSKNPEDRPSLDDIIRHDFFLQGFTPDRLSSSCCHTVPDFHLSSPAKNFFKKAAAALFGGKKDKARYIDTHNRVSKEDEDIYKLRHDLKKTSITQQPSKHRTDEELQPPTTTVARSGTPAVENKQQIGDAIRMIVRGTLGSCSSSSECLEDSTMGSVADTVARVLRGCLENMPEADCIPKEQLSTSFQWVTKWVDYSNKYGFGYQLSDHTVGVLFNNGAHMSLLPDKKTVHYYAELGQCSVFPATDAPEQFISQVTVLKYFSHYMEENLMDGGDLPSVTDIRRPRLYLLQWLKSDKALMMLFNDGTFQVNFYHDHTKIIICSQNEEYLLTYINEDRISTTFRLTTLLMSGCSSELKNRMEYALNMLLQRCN
Chain of PLK3 (Q9H4B4 whole entry): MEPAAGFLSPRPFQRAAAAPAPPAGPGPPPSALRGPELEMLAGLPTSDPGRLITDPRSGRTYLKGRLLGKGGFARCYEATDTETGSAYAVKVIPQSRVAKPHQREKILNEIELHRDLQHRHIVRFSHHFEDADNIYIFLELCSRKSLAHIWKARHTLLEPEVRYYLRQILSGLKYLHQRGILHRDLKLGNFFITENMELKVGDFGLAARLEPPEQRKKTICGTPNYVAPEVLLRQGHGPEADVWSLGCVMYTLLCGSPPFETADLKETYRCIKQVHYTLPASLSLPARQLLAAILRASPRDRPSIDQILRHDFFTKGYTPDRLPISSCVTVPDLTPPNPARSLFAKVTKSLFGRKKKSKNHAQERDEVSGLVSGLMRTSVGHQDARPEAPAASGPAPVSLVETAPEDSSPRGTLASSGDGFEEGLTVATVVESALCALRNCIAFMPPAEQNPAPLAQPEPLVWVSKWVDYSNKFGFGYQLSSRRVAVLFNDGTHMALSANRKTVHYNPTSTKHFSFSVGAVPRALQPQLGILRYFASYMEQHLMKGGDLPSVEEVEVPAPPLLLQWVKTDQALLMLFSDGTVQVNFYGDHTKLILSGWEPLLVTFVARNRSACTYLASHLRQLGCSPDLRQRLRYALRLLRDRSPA

CC[C@@H]1C(=O)N(C)c2cnc(Nc3ccc(C(=O)NC4CCN(C)CC4)cc3OC)nc2N1C1CCCC1 [BI-2536]
LD50 (HCT-116 cells (parental); Example 1, Table 1, parental HCT-116, mean ± s.d.): 3.9 nM and 3.9 ± 1.0 nM
LD50 (HCT-116 cells (parental); Example 2, Table 3, parental HCT-116, n = 3, mean ± s.d.): 3.9 nM and 3.9 ± 2.8 nM
activity in vitro (PLK3): active
bipolar spindles ([1]; BI-2536 treatment, drug-resistant clone B): 46±4%
reduction in bipolar spindles associated with BI-2536 treatment ([1]; Example 1: clones A, B and C): suppressed
activity in vitro (PLK2): active
LD50 ([2]; Example 1, Table 1, clone A, mean ± s.d.): 24.7 ± 5.9 nM
LD50 ([2]; Example 1, Table 1, clone B, mean ± s.d.): 22.9 ± 5.3 nM
LD50 ([2]; Example 1, Table 1, clone C, mean ± s.d.): 12.6 ± 2.6 nM
LD50 ([2]; Example 1, Table 1, clone D, mean ± s.d.): 27.6 ± 2.4 nM
LD50 ([2]; Example 1, Table 1, clone E, mean ± s.d.): 35.9 ± 9.9 nM
LD50 ([2]; Example 1, Table 1, clone F, mean ± s.d.): 33.4 ± 7.5 nM
LD50 ([2]; Example 2, Table 3, clone A, n = 3, mean ± s.d.): 34.9 ± 13.0 nM
LD50 ([2]; Example 2, Table 3, clone B, n = 3, mean ± s.d.): 33.5 ± 2.6 nM
LD50 ([2]; Example 2, Table 3, clone C, n = 3, mean ± s.d.): 27.2 ± 8.6 nM
LD50 ([2]; Example 2, Table 3, clone D, n = 3, mean ± s.d.): 14.2 ± 7.8 nM
LD50 ([2]; Example 2, Table 3, clone E, n = 3, mean ± s.d.): 21.1 ± 5.7 nM
LD50 ([2]; Example 2, Table 3, clone F, n = 3, mean ± s.d.): 27.5 ± 13.3 nM
normal bipolar spindles (HCT-116 cells): 11±3%

c1ccc(C2(c3nc(-c4ccncc4)cs3)CC2)cc1 [PCTP, 4-(2-(1-phenylcyclopropyl)thiazol-4-yl)pyridine]
selectivity over related motor proteins (related motor proteins): inhibit other related motor proteins

N[C@@H](CSC(c1ccccc1)(c1ccccc1)c1ccccc1)C(=O)O [STLC, S-trityl-L-cysteine]
selectivity over related motor proteins (related motor proteins): selective

CC(C)C[C@H](NC(=O)[C@H](Cc1ccccc1)NC(=O)c1cnccn1)B(O)O [bortezomib]
effect of expression of PSMB5 M104V or A108T on bortezomib sensitivity [3]: suppressed bortezomib sensitivity
LD50 (HCT-116 cells (parental); Example 3, Table 4, parental HCT-116, mean ± s.e.m., n = 3): 6.3 ± 0.9 nM
LD50 (HCT-116 cells (parental); HCT-116 cells, text of Example 3): 6.3±0.9 nm
LD50 ([4]; clone A): 19.4 ± 6.7 nM
LD50 ([4]; clone B): 15.3 ± 6.2 nM
LD50 ([4]; clone C): 17.8 ± 6.0 nM
LD50 ([4]; clone D): 17.2 ± 5.4 nM
LD50 ([4]; clone E): 41.5 ± 9.5 nM
LD50 of resistant clones relative to parental cell line ([4]; five clones with reduced bortezomib sensitivity, fold higher): 2.4-6.5 fold

CC(=O)O[C@H]1C(=O)[C@@]2(C)[C@H]([C@H](OC(=O)c3ccccc3)[C@]3(O)C[C@H](OC(=O)[C@H](O)[C@@H](NC(=O)c4ccccc4)c4ccccc4)C(C)=C1C3(C)C)[C@]1(OC(C)=O)CO[C@@H]1C[C@@H]2O [taxol]
sensitivity of clones compared with parental cell line ([2]; Example 1: clones A, B and C): less sensitive than the parental cell line
sensitivity of clones compared with parental cell line ([2]; Example 2: clones D, E and F, 20 nM (FIG. 11)): less sensitive than the parental cell line
